Reference: US20110160081A1, “FUNCTIONAL COMPLEMENTATION ASSAY FOR DEFINED GPCR OLIGOMERS” (priority 2008, published 2011)

Legend:
[1] = test system: endogenous purinergic receptors; assay: Aequorin assay, endogenous receptors in AEQ cells; assay type: cell-based
From the text: To enable isolation of the signaling of the D2R from endogenous G proteins, and to control each of the components of the signaling complex, Flp-In 1-Rex-293 cells were engineered to stably express aequorin (AEQ cells) (see Example 1). Aequorin produces luminescence in a calcium-dependent manner in the presence of the substrate coelenterazine (23, 24), and it has been used to create a sensitive luminescence readout for GPCR-mediated PLC activation (25). In these cells, endogenous muscarinic or purinergic receptors signaled robustly via endogenous Gq, resulting in strong agonist-induced (ACH and ATP, respectively) luminescence signals (FIG. 7A).

[2] = test system: WT D2R coexpressed with D2/D4-Gqi5; assay: Aequorin functional complementation assay, WT D2R as protomer A with D2/D4-Gqi5 as protomer B; assay type: cell-based, human; settings: L745,870 1 μM; agonist quinpirole; n=9
From the text: (§1) The signals were further normalized according to Flag tagged D2R expression level. To normalize for different levels of surface expression levels of the Flag-D2R-Gqi5 mutant constructs, the Emax at each expression level (FIG. 12F) was plotted as a function of different levels of expression of Flag-tagged wt D2R-Gqi5, the expression of which was controlled by varying the time after tetracycline induction (FIG. 12A). The level of Myc-D2R remained essentially unchanged (FIG. 12B). The standard curve was fit to a 1 site rectangular hyperbola using nonlinear regression in GraphPad Prism 4.0 (GraphPad Software Inc., La Jolla, Calif.) (FIG. 12G). The luminescence response of the various Flag-D2R-Gqi5 constructs was normalized using this standard curve to account for the effects of different expression levels, with activation of 1 defined as that observed after 12 hours of tetracycline induction of WT D2R-Gqi5. The Flag detection was approximately 5-fold more sensitive than that of Myc; thus, the excess of Myc-tagged protomer A, which cannot signal on its own, ensures that normalization based on surface expression of the Flag-tagged Gqi5-fused protomer B accurately reflects the productive signaling entities, each of which must contain a protomer A and a protomer B.

[3] = target: T1, SSTR5 coexpressed with D2R-Gqi5 (Homo sapiens, UniProt P14416+P35346); assay type: cell-based
T1 construct: signal peptide (N); expressed in transfected cells; host or cells: AEQ cells (Flp-in T-rex 293 with aequorin)
T1 sequence (P35346 whole entry): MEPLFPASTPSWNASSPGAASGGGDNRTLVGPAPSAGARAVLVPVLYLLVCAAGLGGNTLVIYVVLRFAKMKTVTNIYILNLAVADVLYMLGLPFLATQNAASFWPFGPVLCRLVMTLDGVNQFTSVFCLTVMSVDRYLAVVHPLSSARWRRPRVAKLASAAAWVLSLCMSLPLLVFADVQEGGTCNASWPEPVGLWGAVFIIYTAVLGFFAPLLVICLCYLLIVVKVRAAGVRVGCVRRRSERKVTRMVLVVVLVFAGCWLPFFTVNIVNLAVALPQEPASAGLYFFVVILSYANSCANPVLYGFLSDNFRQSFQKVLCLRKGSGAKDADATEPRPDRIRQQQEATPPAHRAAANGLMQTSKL
T1 sequence (P14416 with tags, fused parts or gaps isoform P14416-2): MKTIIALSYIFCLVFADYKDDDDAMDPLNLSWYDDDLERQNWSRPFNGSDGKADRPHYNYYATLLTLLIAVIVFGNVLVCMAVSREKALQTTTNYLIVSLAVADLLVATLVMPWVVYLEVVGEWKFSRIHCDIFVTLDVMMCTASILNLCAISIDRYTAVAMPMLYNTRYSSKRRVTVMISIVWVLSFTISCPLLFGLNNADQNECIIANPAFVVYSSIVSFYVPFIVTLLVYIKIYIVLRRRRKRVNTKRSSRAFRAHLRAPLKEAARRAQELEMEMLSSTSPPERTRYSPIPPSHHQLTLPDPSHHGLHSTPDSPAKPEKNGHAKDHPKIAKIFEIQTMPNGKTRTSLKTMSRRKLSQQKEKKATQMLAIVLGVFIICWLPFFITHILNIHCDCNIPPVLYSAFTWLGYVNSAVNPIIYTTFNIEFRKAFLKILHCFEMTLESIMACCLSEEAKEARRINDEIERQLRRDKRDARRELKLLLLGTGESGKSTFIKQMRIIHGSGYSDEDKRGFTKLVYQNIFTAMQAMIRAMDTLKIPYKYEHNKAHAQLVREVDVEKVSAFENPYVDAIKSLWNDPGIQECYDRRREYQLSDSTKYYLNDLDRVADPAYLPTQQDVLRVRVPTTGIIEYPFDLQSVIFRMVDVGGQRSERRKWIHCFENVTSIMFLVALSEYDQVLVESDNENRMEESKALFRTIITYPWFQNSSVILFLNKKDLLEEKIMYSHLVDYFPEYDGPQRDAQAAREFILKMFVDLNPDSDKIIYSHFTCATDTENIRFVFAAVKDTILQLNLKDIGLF

[4] = target: T2, SSTR5 coexpressed with D114A-Gqi5 (Homo sapiens, UniProt P35346); assay type: cell-based
T2 construct: signal peptide (N); expressed in transfected cells; host or cells: AEQ cells (Flp-in T-rex 293 with aequorin)
T2 sequence (P35346 whole entry, stated change not applied): as the sequence (P35346 whole entry) above
T2 sequence (P14416 with tags, fused parts or gaps isoform P14416-2 D114A partner): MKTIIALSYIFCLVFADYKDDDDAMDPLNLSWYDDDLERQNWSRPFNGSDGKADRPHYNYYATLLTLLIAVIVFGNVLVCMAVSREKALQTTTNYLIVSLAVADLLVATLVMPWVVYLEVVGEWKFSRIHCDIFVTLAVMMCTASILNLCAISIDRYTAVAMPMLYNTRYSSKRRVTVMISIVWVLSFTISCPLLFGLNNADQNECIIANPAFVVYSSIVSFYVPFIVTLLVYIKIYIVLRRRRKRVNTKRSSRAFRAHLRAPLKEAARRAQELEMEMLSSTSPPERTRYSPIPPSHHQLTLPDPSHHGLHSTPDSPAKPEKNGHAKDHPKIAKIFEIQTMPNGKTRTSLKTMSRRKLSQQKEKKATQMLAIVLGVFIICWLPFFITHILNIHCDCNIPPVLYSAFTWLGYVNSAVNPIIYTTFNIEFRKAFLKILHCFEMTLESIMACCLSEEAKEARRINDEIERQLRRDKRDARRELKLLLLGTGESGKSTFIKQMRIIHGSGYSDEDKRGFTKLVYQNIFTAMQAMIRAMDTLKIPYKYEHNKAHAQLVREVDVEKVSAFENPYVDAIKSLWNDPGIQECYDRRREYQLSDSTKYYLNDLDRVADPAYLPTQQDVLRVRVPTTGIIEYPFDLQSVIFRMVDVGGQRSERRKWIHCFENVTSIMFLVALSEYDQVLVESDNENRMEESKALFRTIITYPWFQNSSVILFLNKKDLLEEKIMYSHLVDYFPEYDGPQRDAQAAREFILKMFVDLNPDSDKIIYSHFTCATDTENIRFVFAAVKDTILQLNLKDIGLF

[5] = target: T3, D2R coexpressed with free Gqi5 (Homo sapiens, UniProt P14416); assay type: cell-based; settings: pertussis toxin 100 ng/ml 16-24 hours
T3 construct: signal peptide (N); expressed in transfected cells; host or cells: Flp-in T-rex 293 cells stably expressing aequorin
T3 sequence (P14416 with tags, fused parts or gaps isoform P14416-2): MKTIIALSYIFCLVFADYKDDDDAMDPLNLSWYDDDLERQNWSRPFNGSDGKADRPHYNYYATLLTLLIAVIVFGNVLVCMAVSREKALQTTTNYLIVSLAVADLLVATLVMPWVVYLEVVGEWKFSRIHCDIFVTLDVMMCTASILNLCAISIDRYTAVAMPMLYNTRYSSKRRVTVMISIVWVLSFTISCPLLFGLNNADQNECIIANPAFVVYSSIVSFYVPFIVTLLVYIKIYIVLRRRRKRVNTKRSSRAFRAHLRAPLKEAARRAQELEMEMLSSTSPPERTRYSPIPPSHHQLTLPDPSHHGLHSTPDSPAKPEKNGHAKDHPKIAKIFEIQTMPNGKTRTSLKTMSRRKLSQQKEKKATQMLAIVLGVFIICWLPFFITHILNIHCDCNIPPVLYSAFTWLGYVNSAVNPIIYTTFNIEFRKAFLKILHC

[6] = target: T4, D2R coexpressed with D2-Gqi5 (Homo sapiens, UniProt P14416); assay: Aequorin functional complementation assay, D2R coexpressed with D2R-Gqi5; assay type: cell-based; settings: pertussis toxin 100 ng/ml 16-24 hours
T4 construct: signal peptide (N); expressed in transfected cells; host or cells: Flp-in T-rex 293 cells stably expressing aequorin
T4 sequence (P14416 with tags, fused parts or gaps isoform P14416-2): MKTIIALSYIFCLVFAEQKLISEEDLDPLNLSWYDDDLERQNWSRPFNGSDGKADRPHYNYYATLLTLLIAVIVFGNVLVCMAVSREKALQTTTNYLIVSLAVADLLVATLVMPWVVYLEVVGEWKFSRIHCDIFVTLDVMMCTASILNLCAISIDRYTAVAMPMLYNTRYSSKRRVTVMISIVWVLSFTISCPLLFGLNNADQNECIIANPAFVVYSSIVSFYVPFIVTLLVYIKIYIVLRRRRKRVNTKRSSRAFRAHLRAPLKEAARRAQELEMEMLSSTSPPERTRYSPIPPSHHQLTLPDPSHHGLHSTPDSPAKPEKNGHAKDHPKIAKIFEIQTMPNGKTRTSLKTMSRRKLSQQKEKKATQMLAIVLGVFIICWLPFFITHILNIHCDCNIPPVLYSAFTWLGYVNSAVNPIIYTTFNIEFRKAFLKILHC
T4 sequence (P14416 with tags, fused parts or gaps isoform P14416-2): as the sequence (P14416 with tags, fused parts or gaps isoform P14416-2 D114A partner) above, with A138D counted along it
From the text: as §1, with “B. […]” for “B.”

Nc1ncnc2c1ncn2[C@@H]1O[C@H](COP(=O)(O)OP(=O)(O)OP(=O)(O)O)[C@@H](O)[C@H]1O [ATP]
agonist-induced luminescence signal via endogenous Gq [1]: strong

Cl.Cl.Cl.Clc1ccc(N2CCN(Cc3c[nH]c4ncccc34)CC2)cc1 [L745,870, 3-(4-[4-Chlorophenyl]piperazin-1-yl)-methyl-1H-pyrrolo[2,3-b]pyridine trihydrochloride]
maximal activation, % of that observed for D2R coexpressed with WT D2R-Gqi5 [2]: 156.7±7.3%

CCN1CCCC1CNC(=O)c1cc(S(N)(=O)=O)ccc1OC (centres unmarked) [sulpiride]
enhancement of potency of somatostatin by sulpiride relative to quinpirole ([3]; D2R inverse agonist sulpiride versus agonist quinpirole): about 6 fold
effect on SSTR5 activation (luminescence readout) ([3]; coadministration of 1 μM with somatostatin): enhanced
shift in the SST curve ([3]; in presence of compound, data not shown): full shift
effect on SSTR5 activation (luminescence readout) [4]: without effect

pertussis toxin
effect of PTX on increase in luminescence [5]: unaffected
effect of pertussis toxin treatment on activation [6]: lack of effect
